Laboratory results as given in patent US20180161310A1, “COMPOUNDS AND METHODS FOR THE TREATMENT OF NEUROLOGICAL DISORDERS” (Teleos Therapeutics, LLC, priority 2016, published 2018).
Where two headings read alike, the source gives them in different places.

How the values were obtained:
Kv7.2/7.3 (KCNQ2/3) = target: T1, Kv7.2/7.3 (KCNQ2/3) (Homo sapiens, UniProt O43525+O43526); test: CHO-Kv7.2/7.3 (KCNQ2/3) 86Rb efflux assay; format: cell-based; details: for Conc μM @ Max Flux: concentration at which maximal 86Rb flux was seen; for Fitted Max %: fit, maximum activation set at 100% of 70 mM KCl control stimulus; for Emax: read-out: Max Flux %
T1 construct: expressed in transfected cells; host or cells: CHO
Procedure: Compounds were tested at concentrations from 0.001 μM to 30 μM to generate 10-point concentration-response curve (CRC) (n=2). Retigabine and ML213 were included as control activators of Kv7.2/7.3 (KCNQ2/3). Data was normalized to ^86Rb flux elicited by application of extracellular buffer containing 70 mM KCl.
Data were fit with “maximum activation” set at 100% of 70 mM KCl control stimulus.

[1] = tested on: VU0463271-induced phenotype (KCC2 inhibition) in zebrafish larvae; test: animal or person; details: for EC50: Danio rerio, read-out: in vivo EC50; for peak activity: concentration of peak effect, doses 2.5-320 uM, suppression of KCC2-inhibited phenotype in zebrafish
Procedure: To quantify the ability of the same drugs to reverse (or “rescue”) the phenotype caused by either 2.5 μM VU0463271 or 5 μM VU0240551, a rescue score between 0 (no rescue) and 1 (maximal theoretical rescue) was calculated (FIG. 2C). A rescue score incorporates and quantifies the degree of phenotypic reversal and the level of sedation in each concentration tested (see Materials and Methods below).
A diverse collection of 37,000 uncharacterized small molecules were used in a suppressor screen against either 2.5 μM VU0463271 (27,000 compounds) or 5 μM VU0240551 (10,000 compounds), along with 3,700 control wells treated with DMSO alone and 3,700 control wells treated with the KCC2 inhibitor. Each well of a 96-well plate containing at least about 8 zebrafish larvae was treated with a library compound or DMSO followed by treatment with the KCC2 inhibitor. Behavioral profiles pre- and post-treatment with the KCC2 inhibitor were evaluated using the behavioral assay battery described herein, and a detailed quantitative readout of about 15,000 time points was generated for each well. These behavioral profiles were used to calculate a screening score for each library compound, which incorporates and quantifies the rescue score and sedation index (see Materials and Methods).
In some cases, small molecules that alter the KCC2 inhibition phenotype may reverse the behavioral phenotype back to the normal, but could also elicit a new undesired phenotype, which is different from a normal behavior. To discriminate between these possibilities, vector algebra was used to compare each behavioral profile to the behavioral profile of DMSO-treated larvae and defined a value for the phenotypic distance from DMSO. The screen score of each compound was then plotted against its averaged phenotypic distance from DMSO (FIG. 3A) and MI (FIG. 3B) to filter out compounds that elicit a profile that is very different from the control one and compounds that reduce overall activity, respectively.
The reproducibility of the effects and the active concentration ranges of the 30 hits selected, as described above, were determined. Their rescue efficacies were retested in at least six concentrations and their rescue scores were also recalculated.
TT0023831 and six analogs were tested at a range of doses from 2.5-320 uM in a behavioral assay designed to assess the ability of compounds to suppress the effects of KCC2 inhibition. The graphs of FIG. 11 indicate the degree of suppression of the KCC2-inhibited phenotype, where a score of 1 represents complete restoration of KCC2-treated zebrafish to normal. […] Table 4 summarizes the estimated EC50 values and peak effect values for each compound.
A large number of fertilized zebrafish eggs (up to 20,000 embryos per day) were collected from group matings of wild type Ekkwill/Singapore zebrafish. Embryos were raised in hatching jars at 28° C. on a 14/10 hour light/dark cycle until 3 days post fertilization (dpf), then transferred to an incubator under the same conditions until 7 dpf. Groups of eight larvae (7 dpf) were distributed into the wells of a clear flat bottom square well 96-well plates filled with E3 medium (300 μl). Larvae were then incubated at 25° C. on the bench top for one-hour chemical treatment and subsequent experiments.
A library containing 37,000 uncharacterized small molecules was purchased from Life Chemicals and dissolved in DMSO at a stock concentration of 10 mM.

[2] = tested on: PTZ-induced behavior in zebrafish larvae; test: Suppression of PTZ-induced behavior in zebrafish larvae; format: in vivo
Procedure: Differences between behavioral profiles of larval zebrafish treated with KCC2 inhibitors and larval zebrafish treated with PTZ were investigated by evaluating the ability of traditional anti-seizure drugs to reverse their effects. Five drugs in at least six concentrations (by allocating 12 wells per concentration) were tested. These drugs included a benzodiazepine anxiolytic (diazepam), two AEDs that increase GABA levels in the synapse (tiagabine and valproate), a sodium channel blocker (phenytoin) and a synthetic neurosteroid GABAA positive allosteric modulator (PAM, ganaxolone).

[3] = 10-point CRC 0.001-30 μM, n=2, fit with maximum activation set at 100% of 70 mM KCl control, read-out: EC50
[4] = 86Rb flux normalized to 70 mM KCl control
[5] = Table 7, first line of values, read-out: EC50 (μM, raw)
[6] = Table 7, second, unlabelled line of values, read-out: EC50 (μM, raw)

Structure (SMILES) | EC50 (Kv7.2/7.3 (KCNQ2/3); [3]) [µM] | Conc μM @ Max Flux (Kv7.2/7.3 (KCNQ2/3)) [µM] | Fitted Max % (Kv7.2/7.3 (KCNQ2/3)) [%] | Emax (Kv7.2/7.3 (KCNQ2/3); [4]) [%] | EC50 (Kv7.2/7.3 (KCNQ2/3); [5]) [µM] | EC50 (Kv7.2/7.3 (KCNQ2/3); [6]) [µM] | EC50 [1] [µM] | peak activity [1] [µM] | other results
Cc1cc(C)c(NC(=O)C2CC3CCC2C3)c(C)c1 (stereo not shown) [ML213, reference compound] | 0.02 | 0.3 | 98 | – | – | – | – | – | Max Flux % (Kv7.2/7.3 (KCNQ2/3); [4]): 109%; 86Rb flux elicited by reference activators (Kv7.2/7.3 (KCNQ2/3); EC50 values comparable to literature values): robust concentration-dependent
CCOC(=O)Nc1ccc(NCc2ccc(F)cc2)cc1N [Retigabine, reference compound] | 0.1 | – | – | 89 | – | – | – | – | –
CCCOc1nn(CCC)cc1C(=O)Nc1ccc(F)cc1F [TT0000349, N-(2,4-difluorophenyl)-3-propoxy-1-propyl-1H-pyrazole-4-carboxamide] | > 30 | 10 | 100 | 33 | 0.54 | > 30 | – | – | –
CCCOc1nn(CCC)cc1C(=O)Nc1cc(F)ccc1F [TT0000351, N-(2,5-difluorophenyl)-3-propoxy-1-propyl-1H-pyrazole-4-carboxamide] | > 30 | 10 | 100 | 33 | > 30 | > 10 | – | – | –
CCCOc1nn(CCC)cc1C(=O)Nc1ccc(F)c(Cl)c1 [TT0000352, N-(3-chloro-4-fluorophenyl)-3-propoxy-1-propyl-1H-pyrazole-4-carboxamide] | > 30 | 3 | 100 | 33 | 0.48 | 0.14 | – | – | –
CCCOc1nn(CCC)cc1C(=O)Nc1ccccc1 [TT0000363, N-phenyl-3-propoxy-1-propyl-1H-pyrazole-4-carboxamide] | > 30 | 0.001 | 100 | 15 | > 30 | > 30 | – | – | –
CCCOc1nn(CCC)cc1C(=O)Nc1ccc(C#N)cc1 [TT0000366, N-(4-cyanophenyl)-3-propoxy-1-propyl-1H-pyrazole-4-carboxamide] | > 30 | 3 | 100 | 28 | 0.0054 | > 30 | – | – | –
CCCOc1nn(CCC)cc1C(=O)Nc1ccc(C(F)(F)F)c(F)c1 [TT0000367, N-(3-fluoro-4-(trifluoromethyl)phen-yl)-3-propoxy-1-propyl-1H-pyrazole-4-carboxamide] | > 30 | 0.01 | 100 | 21 | > 30 | > 30 | – | – | suppression score dose response compared with other compounds as suppressor of the hyperexcitability phenotype ([1]; zebrafish, FIG. 8 / FIG. 10): outperform the other compounds tested
CCCOc1nn(CCC)cc1C(=O)Nc1ccc(C(F)(F)F)c(Cl)c1 [TT0000369, N-(3-chloro-4-(trifluoromethyl)phen-yl)-3-propoxy-1-propyl-1H-pyrazole-4-carboxamide] | > 30 | 3 | 100 | 35 | 1.54 | 2.63 | – | – | –
CCCOc1nn(CCC)cc1C(=O)Nc1ccc(C(F)(F)F)c(C)c1 [TT0000372, N-(3-methyl-4-(trifluoromethyl)phen-yl)-3-propoxy-1-propyl-1H-pyrazole-4-carboxamide] | > 30 | 10 | 100 | 31 | 9.5 | 1.6 | – | – | –
COc1cc(C)c(Br)cc1S(=O)(=O)NCCN1CCOCC1 [TT0027052, 5-bromo-2-methoxy-4-methyl-N-(2-morpholinoethyl)benzene-sulfonamide] | – | – | – | – | – | – | 5 | 20 | –
COc1cc(C)c(C)cc1S(=O)(=O)NCCN1CCOCC1 [TT0038280, 2-methoxy-4,5-dimethyl-N-(2-morpholinoethyl)benzene-sulfonamide] | – | – | – | – | – | – | 40 | 80 | –
CCOc1ccc(Br)cc1S(=O)(=O)NCCN1CCOCC1 [TT0048134, 5-bromo-2-ethoxy-N-(2-morpholinoethyl)benzene-sulfonamide] | – | – | – | – | – | – | 15 | 20 | –
COc1cc(C)c(C(C)C)cc1S(=O)(=O)NCC1CCCO1 (stereo not shown) [TT0048274, 5-isopropyl-2-methoxy-4-methyl-N-((tetrahydrofuran-2-yl)methyl)benzenesulfonamide] | – | – | – | – | – | – | > 160 | >160 | –
COc1ccc(C(C)C)cc1S(=O)(=O)NCCN1CCOCC1 [TT0048803, 5-isopropyl-2-methoxy-N-(2-morpholinoethyl)benzene-sulfonamide] | – | – | – | – | – | – | < 5 | 20 | –
COc1cc(S(=O)(=O)NCCN2CCOCC2)c(OC)cc1C [TT0048874, 2,5-dimethoxy-4-methyl-N-(2-morpholinoethyl)benzene-sulfonamide] | – | – | – | – | – | – | 40 | 160 | –
CN1C(=O)CN=C(c2ccccc2)c2cc(Cl)ccc21 [diazepam] | – | – | – | – | – | – | – | – | prevention of the formation of the PTZ-induced behavior ([2]; zebrafish, in vivo): almost completely prevented
CC(=O)[C@H]1CC[C@H]2[C@@H]3CC[C@H]4C[C@](C)(O)CC[C@]4(C)[C@H]3CC[C@]12C [ganaxolone] | – | – | – | – | – | – | – | – | prevention of the formation of the PTZ-induced behavior ([2]; pre-treatment, non-sedative concentration 0.31 μM, data not shown): almost completely prevented
O=C1NC(=O)C(c2ccccc2)(c2ccccc2)N1 [phenytoin] | – | – | – | – | – | – | – | – | prevention of the formation of the PTZ-induced behavior ([2]; pre-treatment, 160 μM, data not shown): almost no effect
Cc1ccsc1C(=CCCN1CCC[C@@H](C(=O)O)C1)c1sccc1C [tiagabine, reference compound] | – | – | – | – | – | – | – | – | rescue of the behavioral profile induced by KCC2 inhibition (rescue score 0-1) ([1]; phenotype caused by 2.5 μM VU0463271 or 5 μM VU0240551, at least six concentrations): most effective; prevention of the formation of the PTZ-induced behavior ([2]; pre-treatment, non-sedative concentration 40 μM, data not shown): almost completely prevented
